Like-named read-outs stand apart in the source and are kept apart here. Residues, ends and D or L forms follow the SMILES beside them.
T1: human β-ureidopropionase (HsβUP) (Homo sapiens, UniProt Q9UBR1)
T1 construct: gene UPB1
T1 sequence (Q9UBR1 1-384): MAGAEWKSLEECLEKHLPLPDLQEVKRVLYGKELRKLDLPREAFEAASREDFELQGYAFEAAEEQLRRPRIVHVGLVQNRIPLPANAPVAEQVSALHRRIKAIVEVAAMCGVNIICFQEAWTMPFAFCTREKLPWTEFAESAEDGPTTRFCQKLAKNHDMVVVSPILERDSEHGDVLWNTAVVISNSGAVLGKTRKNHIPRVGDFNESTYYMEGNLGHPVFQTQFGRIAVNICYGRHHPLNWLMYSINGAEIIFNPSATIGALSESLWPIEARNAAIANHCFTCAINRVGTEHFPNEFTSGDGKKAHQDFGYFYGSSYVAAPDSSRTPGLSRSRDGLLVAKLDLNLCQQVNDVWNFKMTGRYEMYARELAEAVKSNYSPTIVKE


What was measured:
[1] = target: T1, human β-ureidopropionase (HsβUP); assay: discontinuous OPA fluorescence assay of beta-alanine formation from NCβA; type: biochemical
Source text: discontinuous OPA fluorescence assay of beta-alanine formation from NCβA on human β-ureidopropionase (HsβUP)

[2] = substrate: NC(=O)NCCC(=O)O; assay: as above; type: biochemical, Homo sapiens; conditions: pH 6.5, 37 °C, 100 mM MES, 50 mM NaCl

Ki [1] [µM]	Molecule	further results
2270	CC(C)C(=O)O [isobutyric acid]	
151	CC(C)(N)C(=O)O [2-aminoisobutyric acid]	
	NCC(=O)NCC(=O)O [glycyl-glycine] (H-Gly-Gly-OH)	Ki ([1]; pH 6.5, 37 °C, 100 mM MES, 50 mM NaCl, competitive mode assumed (data best fitted as non-competitive), substrate NCβA): 237 µM
	human β-ureidopropionase (HsβUP) (Homo sapiens) (protein) MAGAEWKSLEECLEKHLPLPDLQEVKRVLYGKELRKLDLPREAFEAASREDFELQGYAFEAAEEQLRRPRIVHVGLVQNRIPLPANAPVAEQVSALHRRIKAIVEVAAMCGVNIICFQEAWTMPFAFCTREKLPWTEFAESAEDGPTTRFCQKLAKNHDMVVVSPILERDSEHGDVLWNTAVVISNSGAVLGKTRKNHIPRVGDFNESTYYMEGNLGHPVFQTQFGRIAVNICYGRHHPLNWLMYSINGAEIIFNPSATIGALSESLWPIEARNAAIANHCFTCAINRVGTEHFPNEFTSGDGKKAHQDFGYFYGSSYVAAPDSSRTPGLSRSRDGLLVAKLDLNLCQQVNDVWNFKMTGRYEMYARELAEAVKSNYSPTIVKE	Km [2]: 101.4 µM

Reference: paper PMC10741476, “The Allosteric Regulation of Β-Ureidopropionase Depends on Fine-Tuned Stability of Active-Site Loops and Subunit Interfaces” (Biomolecules, 2023)
